Legend:
[1] = Intrinsic permeability in human Caco2 cells; type: ADME, cell-based; conditions: Caco-2
[2] = Intrinsic clearance in rat hepatocytes assessed per million cells; type: ADME, cell-based, Hepatocyte; conditions: read-out: CLH
[3] = molecular target: Voltage-gated inwardly rectifying potassium channel KCNH2 (Homo sapiens, UniProt Q12809); experiment: Inhibition of human ERG
[4] = Distribution coefficient, log D of the compound in buffer/octanol solution by shake-flask method; type: physicochemical
[5] = Dissociation constant, pKa of the compound (morpholine); type: physicochemical

Voltage-gated inwardly rectifying potassium channel KCNH2, sequence (Q12809 whole entry): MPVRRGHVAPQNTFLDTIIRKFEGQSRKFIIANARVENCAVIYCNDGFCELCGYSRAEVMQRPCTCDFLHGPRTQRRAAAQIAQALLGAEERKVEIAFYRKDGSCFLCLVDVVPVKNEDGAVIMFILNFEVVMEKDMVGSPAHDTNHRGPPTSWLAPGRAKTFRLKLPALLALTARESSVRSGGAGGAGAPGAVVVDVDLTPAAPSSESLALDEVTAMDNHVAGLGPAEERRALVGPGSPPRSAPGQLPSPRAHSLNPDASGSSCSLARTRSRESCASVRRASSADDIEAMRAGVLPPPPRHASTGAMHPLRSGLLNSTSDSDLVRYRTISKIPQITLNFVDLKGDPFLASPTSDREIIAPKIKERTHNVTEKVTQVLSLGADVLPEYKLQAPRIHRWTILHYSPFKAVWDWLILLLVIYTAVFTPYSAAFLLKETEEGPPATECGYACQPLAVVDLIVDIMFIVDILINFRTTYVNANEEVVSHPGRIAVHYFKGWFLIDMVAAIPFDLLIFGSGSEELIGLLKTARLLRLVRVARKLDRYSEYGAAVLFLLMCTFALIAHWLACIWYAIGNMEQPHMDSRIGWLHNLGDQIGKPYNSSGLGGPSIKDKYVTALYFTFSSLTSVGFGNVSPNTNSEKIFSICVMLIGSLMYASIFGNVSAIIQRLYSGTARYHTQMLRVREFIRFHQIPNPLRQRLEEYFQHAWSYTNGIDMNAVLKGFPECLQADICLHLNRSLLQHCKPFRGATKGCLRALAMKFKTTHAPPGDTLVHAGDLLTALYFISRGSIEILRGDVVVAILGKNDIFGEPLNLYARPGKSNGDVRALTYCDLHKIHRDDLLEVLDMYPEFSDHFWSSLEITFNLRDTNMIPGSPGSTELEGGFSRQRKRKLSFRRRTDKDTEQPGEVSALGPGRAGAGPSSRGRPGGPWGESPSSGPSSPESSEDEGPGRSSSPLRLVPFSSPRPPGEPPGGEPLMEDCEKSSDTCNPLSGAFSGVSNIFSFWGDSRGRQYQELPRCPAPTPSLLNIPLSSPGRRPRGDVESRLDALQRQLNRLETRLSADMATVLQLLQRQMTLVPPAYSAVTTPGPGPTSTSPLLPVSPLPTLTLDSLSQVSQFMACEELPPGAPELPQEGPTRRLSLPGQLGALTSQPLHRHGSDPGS

Compound	Papp [1]	hepatocyte CLint [2]	logD [4]	IC50 [3]	pKa [5]
Cc1c[nH]c2ncnc(O[C@H]3CC[C@H](N4C[C@H]5C[C@@H]4CO5)CC3)c12	25 ×10⁻⁶ cm/s	110 µL/min/1e6 cells	1.8	> 39.8 µM	8.1
Cc1c[nH]c2ncnc(O[C@H]3CC[C@H](N4C[C@@H]5C[C@H]4CO5)CC3)c12	29 ×10⁻⁶ cm/s	36 µL/min/1e6 cells	2	> 39.8 µM	–
Cc1c[nH]c2ncnc(O[C@H]3CC[C@H](N4CCOCC4)CC3)c12	33 ×10⁻⁶ cm/s	180 µL/min/1e6 cells	2.6	> 39.8 µM	7.5

More lines, main results first:

Papp [1]	hepatocyte CLint [2]	logD [4]	Compound	IC50 [3]	pKa [5]
27 ×10⁻⁶ cm/s	210 µL/min/1e6 cells	3.1	Cc1c[nH]c2ncnc(O[C@H]3CC[C@H](N4CCO[C@H](C)C4)CC3)c12	> 39.8 µM	–
31 ×10⁻⁶ cm/s	140 µL/min/1e6 cells	3	Cc1c[nH]c2ncnc(O[C@H]3CC[C@H](N4CCO[C@@H](C)C4)CC3)c12	25.1 µM	–

Source: ChEMBL document CHEMBL4196191, “Lowering Lipophilicity by Adding Carbon: One-Carbon Bridges of Morpholines and Piperazines” (J Med Chem, 2018)
